According to patent publication US4104384A, “1-(2'-Aroyl eth-1'yl) 2-(4"-acetamido piperazine-1"yl methyl) benzimidazoles and their therapeutical applications” (priority 1975, dated 1978):

How the values were obtained:
stress ulcers = assay: Anti-ulcerous properties: ulcerations in rat under stress for 7 hours, oral; type: in vivo; settings: po, read-out: Percentage reduction of stress ulcers
painful stretchings = assay: Analgesic: painful stretchings following intraperitoneal injection of acetic acid; type: in vivo; settings: po; mouse, 100 mg/kg/p.o.; read-out: Percentage diminution painful stretchings
Excerpt: The compounds of formula (I), administered orally to a mouse, are capable of reducing the number of painful stretchings following intraperitioneal injection of acetic acid.

[1] = Acute toxicity, lethal dose 50; settings: mouse, in vivo, po, read-out: Lethal dose 50 (mouse) / DL 50 (mouse) (converted)
jejunal ansa of a rabbit = assay: Spasmolytic in vivo: contractions of the jejunal ansa caused by electric stimulation; settings: 26.5 mg/kg/i.d.
Excerpt: (§1) The compounds of formula (I), administered intraduodenally are capable of reducing the contractions of the jejunal ansa of a rabbit, caused by electric stimulation.

Shay's ulcer = assay: Anti-ulcerous properties: ulceration caused by ligature of the pylorus (Shay's ulcers), intraduodenal; type: in vivo; settings: rat, read-out: Percentage reduction of Shay's ulcer
Excerpt: Furthermore, the compounds of formula (I) administered intraduodenally reduce the ulceration area caused by ligature of the pylorus of a rat (Shay's ulcers).

gastric secretion = assay: Gastric antisecretory properties: gastric secretion after Shay ligature, intraduodenal; type: in vivo; settings: intraduodenal, rat, read-out: Reduction of volume of gastric secretion
Excerpt: Administered intraduodenally to a rat, the compounds of formula (I) are capable of reducing gastric secretion measured after Shay ligature.

[2] = test system: uterine horn of a female rabbit; assay: Spasmolytic in vivo: contractions of the uterine horn caused by electric stimulation; settings: 53 mg/kg/i.d.
Method: as §1
The same test was studied with the uterine horn of a female rabbit.
For example, compound No 73.0442, administered at a dose of 53 mg/kg/i.d. reduces by 85 % for more than an hour, the contractions of the uterine horn of a female rabbit caused by electric stimulation.

[3] = test system: bronchoconstriction caused by acetylcholine; assay: Anticholinergic and antibronchoconstrictive: bronchoconstriction by intravenous acetylcholine, Konzett's method; type: in vivo; settings: Cavia porcellus, intraduodenal; guinea-pig, i.d., 25 mg/kg; read-out: Percentage inhibition of the bronchoconstriction
Excerpt: Injected intravenously or intraduodenally, the compounds of formula (I) are capable of opposing bronchoconstriction caused in a guinea-pig by intravenous injection of acetylcholine and evaluated by Konzett's method.

arterial pressure = assay: Anti-hypertensive: arterial pressure in genetically hyperstressed vigil rats (S.H.R.); type: in vivo, rat; settings: 10 mg/kg/p.o., 4 hours
Method: The compounds of formula (I) are capable, 4 hours after their oral injection, of bringing the arterial pressure down to normal in genetically hyperstressed vigil rats (S.H.R.).

volume of urine emitted = assay: Diuretic: volume of urine emitted; type: in vivo; settings: po; rat, urine volume for 6 hours following administration; read-out: DE 50 (diuretic)
Method: The compounds of formula (I), administered orally to a rat, increase the volume of urine emitted, relative to controls, the volume being measured for the 6 hours following administration.

Compound | inhibition in vivo at 5.2 mg/kg (stress ulcers; 5.2 mg/kg/p.o.) [%] | inhibition in vivo at 100 mg/kg (painful stretchings) [%] | LD50 [1] [mg/kg] | Diminution of contractions of the jejunum for more than an hour (jejunal ansa of a rabbit) [%] | inhibition in vivo at 7.6 mg/kg (Shay's ulcer; 7.6 mg/kg/i.d.) [%] | inhibition in vivo at 2.1 mg/kg (gastric secretion; 2.1 mg/kg/i.d.) [%] | reduction of the contractions of the uterine horn for more than an hour [2] [%] | inhibition in vivo at 25 mg/kg [3] [%] | inhibition in vivo at 20 mg/kg (stress ulcers; 20 mg/kg/p.o.) [%] | arterial pressure brought down to normal (arterial pressure) | inhibition in vivo at 40 mg/kg (Shay's ulcer; 40 mg/kg/i.d.) [%] | inhibition in vivo at 25 mg/kg (gastric secretion; 25 mg/kg/i.d.) [%] | ED50 (volume of urine emitted) [mg/kg]
CC(C)NC(=O)CN1CCN(Cc2nc3ccccc3n2CCC(=O)c2ccccc2)CC1 [73 0442] | 99 | 80 | 798 | 67 | 88 | 68 | 85 | 100 |  |  |  |  | 
COc1ccccc1C(=O)CCn1c(CN2CCN(CC(=O)NC(C)C)CC2)nc2ccccc21 [75 0011] |  |  | 120 |  |  |  |  |  | 51 | 4 animals out of 7 | 78 | 75 | 1
